In series [1] the test system is Rattus norvegicus. Kind of series: Anti-inflammatory activity in Brown Norway rat assessed as inhibition of TMA-induced ear edema at 30 mg/kg, po relative to control. Format: functional.
The nature of series [2]: Oral bioavailability in rat at 10 mg/kg dosed as microcrystalline suspension. To be noted: in vivo. The format is ADME, organism-based.
Series [3] concerns the target T1, Progesterone receptor (Homo sapiens, UniProt P06401).
T1 sequence (P06401 whole entry): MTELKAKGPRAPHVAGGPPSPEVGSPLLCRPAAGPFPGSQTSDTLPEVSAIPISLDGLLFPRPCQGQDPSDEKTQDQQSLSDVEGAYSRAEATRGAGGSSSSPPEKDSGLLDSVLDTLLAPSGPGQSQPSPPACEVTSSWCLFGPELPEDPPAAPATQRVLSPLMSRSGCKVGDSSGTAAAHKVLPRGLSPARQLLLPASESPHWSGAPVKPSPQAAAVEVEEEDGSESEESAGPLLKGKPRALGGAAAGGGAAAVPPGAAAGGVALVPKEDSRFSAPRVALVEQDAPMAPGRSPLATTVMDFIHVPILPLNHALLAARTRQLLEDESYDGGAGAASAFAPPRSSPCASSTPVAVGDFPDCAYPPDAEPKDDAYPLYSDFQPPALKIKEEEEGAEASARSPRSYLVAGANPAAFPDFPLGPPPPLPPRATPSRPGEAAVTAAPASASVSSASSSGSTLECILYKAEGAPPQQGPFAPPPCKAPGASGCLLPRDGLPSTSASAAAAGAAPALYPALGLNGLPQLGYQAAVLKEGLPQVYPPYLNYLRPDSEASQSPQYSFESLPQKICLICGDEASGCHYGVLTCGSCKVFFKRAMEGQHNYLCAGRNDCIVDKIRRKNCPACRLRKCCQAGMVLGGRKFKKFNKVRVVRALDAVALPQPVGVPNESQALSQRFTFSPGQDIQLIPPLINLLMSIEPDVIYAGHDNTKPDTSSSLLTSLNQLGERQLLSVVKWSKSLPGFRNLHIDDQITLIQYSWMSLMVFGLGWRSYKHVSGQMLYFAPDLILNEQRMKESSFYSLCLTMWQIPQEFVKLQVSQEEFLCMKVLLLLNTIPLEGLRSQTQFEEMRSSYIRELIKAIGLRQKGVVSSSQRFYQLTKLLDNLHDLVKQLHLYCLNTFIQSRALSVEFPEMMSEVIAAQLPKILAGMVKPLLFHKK
The series can be described thus: Binding affinity to recombinant human progesterone receptor expressed in baculovirus infected sf9 cells.

In series [4] the target is T2, Androgen receptor (Homo sapiens, UniProt P10275).
T2 sequence (P10275 whole entry): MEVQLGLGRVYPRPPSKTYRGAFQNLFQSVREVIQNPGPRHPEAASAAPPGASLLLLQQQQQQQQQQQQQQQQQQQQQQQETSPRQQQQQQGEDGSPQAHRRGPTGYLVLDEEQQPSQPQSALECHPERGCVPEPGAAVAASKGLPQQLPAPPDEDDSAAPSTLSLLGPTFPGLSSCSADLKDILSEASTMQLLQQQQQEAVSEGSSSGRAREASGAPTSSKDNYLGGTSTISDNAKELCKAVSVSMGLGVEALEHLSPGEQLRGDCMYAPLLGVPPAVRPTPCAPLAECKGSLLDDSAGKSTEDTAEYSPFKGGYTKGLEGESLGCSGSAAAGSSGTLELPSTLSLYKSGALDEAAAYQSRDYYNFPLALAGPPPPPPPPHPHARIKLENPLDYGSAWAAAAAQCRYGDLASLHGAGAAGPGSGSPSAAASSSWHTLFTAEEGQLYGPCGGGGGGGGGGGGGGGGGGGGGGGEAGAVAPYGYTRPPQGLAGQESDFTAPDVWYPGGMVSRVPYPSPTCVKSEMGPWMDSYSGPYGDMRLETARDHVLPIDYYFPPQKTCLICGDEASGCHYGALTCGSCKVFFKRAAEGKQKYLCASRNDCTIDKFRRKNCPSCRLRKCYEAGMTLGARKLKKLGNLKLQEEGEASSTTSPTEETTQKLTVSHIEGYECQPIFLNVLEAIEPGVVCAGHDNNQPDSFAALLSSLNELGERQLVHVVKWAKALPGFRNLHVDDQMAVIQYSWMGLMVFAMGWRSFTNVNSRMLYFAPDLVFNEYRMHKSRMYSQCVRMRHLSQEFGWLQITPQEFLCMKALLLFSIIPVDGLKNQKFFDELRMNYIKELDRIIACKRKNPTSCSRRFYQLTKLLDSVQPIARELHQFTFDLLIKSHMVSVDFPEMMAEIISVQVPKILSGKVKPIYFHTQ
The series can be described thus: Binding affinity to recombinant human androgen receptor expressed in baculovirus infected sf9 cells.

Series [5] concerns the target T3, Glucocorticoid receptor (Homo sapiens, UniProt P04150).
T3 sequence (P04150 whole entry): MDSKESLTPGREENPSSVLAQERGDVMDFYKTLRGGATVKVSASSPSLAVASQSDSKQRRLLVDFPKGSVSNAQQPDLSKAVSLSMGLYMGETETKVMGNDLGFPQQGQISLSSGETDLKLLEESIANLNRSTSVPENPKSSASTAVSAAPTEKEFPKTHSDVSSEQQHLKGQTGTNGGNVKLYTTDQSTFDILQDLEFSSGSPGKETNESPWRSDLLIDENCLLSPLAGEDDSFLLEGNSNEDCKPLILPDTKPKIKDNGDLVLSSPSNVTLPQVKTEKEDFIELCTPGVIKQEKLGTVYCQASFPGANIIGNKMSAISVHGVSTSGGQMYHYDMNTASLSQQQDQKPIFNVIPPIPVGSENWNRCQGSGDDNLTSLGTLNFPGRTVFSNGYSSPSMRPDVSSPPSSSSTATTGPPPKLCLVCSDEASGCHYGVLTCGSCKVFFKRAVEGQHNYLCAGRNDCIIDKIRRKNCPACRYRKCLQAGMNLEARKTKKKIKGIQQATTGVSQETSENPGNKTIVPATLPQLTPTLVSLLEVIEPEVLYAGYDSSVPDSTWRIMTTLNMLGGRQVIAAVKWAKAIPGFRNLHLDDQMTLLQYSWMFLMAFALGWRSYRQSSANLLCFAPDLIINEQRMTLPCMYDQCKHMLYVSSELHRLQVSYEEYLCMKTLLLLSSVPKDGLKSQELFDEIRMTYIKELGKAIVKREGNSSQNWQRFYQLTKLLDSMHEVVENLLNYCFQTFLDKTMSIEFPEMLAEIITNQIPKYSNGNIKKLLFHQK
Kind of series: Transrepression activity at glucocorticoid receptorin human HeLa cells assessed as inhibition of TPA-induced collagenase promoter activity by luciferase reporter gene assay. The format is cell-based. (A reporter such as luciferase makes a cellular process visible.)

Series [6] has as its target T3, Glucocorticoid receptor. Kind of series: Binding affinity to recombinant human glucocorticoid receptor expressed in baculovirus infected sf9 cells.
Series [7] relates to Rattus norvegicus. The series can be described thus: Anti-inflammatory activity in po dosed Brown Norway rat assessed as inhibition of TMA-induced ear edema. The format is functional.
The nature of series [8]: Lipophilicity, log P of the compound. Format: physicochemical. Conditions: octanol/water.

Each structure is given as a SMILES string.

The bioavailability is dose-corrected exposure relative to a reference, in per cent. As usually defined, the IC50 is the point on the concentration scale where inhibition reaches its midpoint. By ED50 is commonly meant the midpoint of the dose-response relation. As usually defined, the logP is the decadic logarithm of the partition coefficient of the neutral form, usually between octanol and water. A higher logP goes with a more lipophilic compound.

Turning to `CC[C@@H]1C[C@](O)(C(F)(F)F)[C@@H](Nc2cc(F)cc3nc(C)ncc23)c2ccc(F)c(O)c21`, in series [1], the Imax amounted to 55%. The bioavailability in series [2] was determined as 59%. Also, the concentration for half-maximal inhibition (IC50) is above 1000 nM in series [3], above 1000 nM in series [4], 6.31 nM in series [5] and 126 nM in series [6]. Further, the ED50 in series [7] was 1.3 mg/kg. In addition, in series [8], the logP turned out to be 4.

(Values after ChEMBL document CHEMBL4041544, “Discovery of new selective glucocorticoid receptor agonist leads” (Bioorg Med Chem Lett, 2017).)
